Marks after values point to notes of the source that are not given here. Square brackets hold non-standard residues; d marks the D form. * marks the point of attachment. His(Trt) = N[C@@H](Cc1cn(C(c2ccccc2)(c2ccccc2)c2ccccc2)cn1)C(=O)O; Pbf = Cc1c(C)c(S(=O)(=O)*)c(C)c2c1OC(C)(C)C2; code Z = not defined here; Cbz = O=C(OCc1ccccc1)*; Boc = CC(C)(C)OC(=O)*; OtBu = CC(C)(C)O*; tBu = CC(C)(C)*
What was measured:
Assay type in all cases: biochemical
Alcalase CLEA [1] = biological target: T1, Alcalase CLEA (Bacillus licheniformis, UniProt P00780); test: Deprotection of model dipeptides by Alcalase CLEA (Example 3); conditions: 0.1 mmol, 5 mg enzyme, 50 v/v % DMF/phosphate buffer pH 7, 40° C., 6 hours
T1 construct: purchased CLEA Technologies B. V., Delft, The Netherlands
T1 sequence (P00780 106-379): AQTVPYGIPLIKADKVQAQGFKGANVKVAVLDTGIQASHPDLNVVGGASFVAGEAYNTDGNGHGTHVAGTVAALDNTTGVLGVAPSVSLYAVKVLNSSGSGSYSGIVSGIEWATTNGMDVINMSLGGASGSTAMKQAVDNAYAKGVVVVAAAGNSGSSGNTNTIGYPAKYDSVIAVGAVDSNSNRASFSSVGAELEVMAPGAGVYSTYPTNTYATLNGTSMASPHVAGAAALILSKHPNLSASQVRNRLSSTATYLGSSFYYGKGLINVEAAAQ
Source text: A person skilled in the art can easily identify suitable substrates, for instance by performing a simple test hydrolysis of a selected peptide comprising a C-terminal tert-butyl ester functionality under suitable conditions as described herein before and following conversion e.g. by HPLC techniques. It has been found by hydrolysis of model dipeptides of the general structure Z-Val-X-OBu^t in the presence of Alcalase CLEA and 50% v/v of DMF (see for details Example 3) that the reactivity for these model substrates comprising a C-terminal tert-butyl ester functionality can be divided into four categories:
General Procedure Alcalase CLEA:
0.1 mmol of each of the peptides was dissolved in 2.5 ml DMF. To this solution 5 mg of enzyme were added along with 2.5 ml phosphate buffer 0.1M pH 7. The reaction mixture was incubated at 40° C. for a total of six hours. The reaction mixtures were analysed after 6 hours using HPLC and LC/MS.

Subtilisin A [2] = biological target: T2, Subtilisin A (Bacillus licheniformis, UniProt P00780); test: Deprotection of model dipeptides by Subtilisin A (Example 3); conditions: 0.1 mmol, 5 mg enzyme, 50 v/v % DMF/phosphate buffer pH 7, 40° C., 6 hours
T2 construct: purchased Novozymes
T2 sequence (P00780 106-379): T1 sequence (P00780 106-379)
Protocol: (§1) General Procedure Subtilisin A:
0.1 mmol of each of the peptides was dissolved in 2.5 ml DMF. 5 mg of enzyme were dissolved in 2.5 ml phosphate buffer 0.1 M pH 7 and were added to the peptide solution. The reaction mixture was incubated at 40° C. for a total of six hours. The reaction mixtures were analysed after 6 hours using HPLC and LC/MS.

Alcalase CLEA [3] = biological target: T1, Alcalase CLEA; test: Identification of peptide substrates susceptible to endopeptidic cleavage (Example 5)
Protocol: General procedure Alcalase CLEA:
0.1 mmol of each of the tetrapeptides (or tetrapeptide mixtures) were dissolved in 2.5 ml DMF. To this solution 5 mg of enzyme were added along with 2.5 ml phosphate buffer 0.1 M pH 7 and were added to the previous solution. The reaction mixture was incubated at 40° C. Reaction mixtures were analysed after 2 hours and 6 hours by HPLC. In case the reaction had not reached completion additional portions of enzyme [5 mg each] were added at the end of six hours and overnight (approx. 24 hours of reaction). The last aliquot was analysed by LC/MS to verify the presence of the desired compound and of any impurities being Z-Val-Val-X-OH and/or H-X-Leu-OH.

Alcalase CLEA [4] = biological target: T1, Alcalase CLEA; test: Hydrolysis of tetrapeptide tert-butyl ester by Alcalase CLEA in NMP/buffer (Example 2); conditions: 0.05 mmol, 5 mg Alcalase CLEA, NMP/phosphate buffer pH 8 1:1, 40° C., 17 h
Protocol: 0.05 mmol of Boc-Gly-Phe-Phe-Leu-OBu^t was dissolved in a thermostated mixture of 2.5 ml NMP and 2.5 ml phosphate buffer 0.1M pH 8. To this solution 5 mg of Alcalase CLEA were added. The reaction mixture was incubated at 40° C. for a total of 17 hours. Substrate conversion is determined by HPLC. The reaction resulted after 17 h in >95% yield of Boc-Gly-Phe-Phe-Leu-OH.

[5] = biological target: T3, subtilisin A (S. Carlsberg) (Bacillus licheniformis, UniProt P00780); test: Hydrolysis of C-terminal tert-butyl esters by free subtilisin A (Example 1); conditions: 0.1 mmol peptide, 5 mg enzyme, DMF/phosphate buffer 0.1 M 1:1, 40° C., 2 hours, HPLC
T3 construct: purchased Sigma Aldrich
T3 sequence (P00780 106-379): T1 sequence (P00780 106-379)
Protocol: as §1
0.1 mmol of each of the peptides was dissolved in a thermostated mixture of 2.5 ml DMF and 2.5 ml phosphate buffer 0.1 M pH 7.5 mg of enzyme were added to the peptide solution. The reaction mixture was incubated at 40° C. for a total of two hours. The reaction mixtures were analysed after 2 hours using HPLC.

Alcalase CLEA [6] = biological target: T1, Alcalase CLEA; test: Scaling up of the procedure (Example 6); conditions: 1 mmol, 3x25 mg Alcalase CLEA, 50% DMF, pH 7, 40° C., 6 days
Protocol: To a stirred solution of 606 mg (1 mmol) Z-Val-Trp-Leu-OBu^t in 25 ml DMF 25 mg of Alcalase CLEA were added along with 25 ml of phosphate buffer 0.1 M pH 7. The mixture was stirred at 40° C. The reaction progress was monitored by HPLC. Extra portions of enzyme (25 mg of Alcalase CLEA each) were added after 24 hours and after 48 hours. After 6 days the reaction was stopped. The reaction mixture was acidified to pH 2 and DMF was evaporated. The product was extracted with ethyl acetate. The organic layer was dried using sodium sulphate, concentrated in vacuo and the final product precipitated from heptane.

Subtilisin A [7] = biological target: T2, Subtilisin A; test: Optimization of the amount of enzyme (Example 4); conditions: 2 h
Protocol: 0.1 mmol of each of the peptides was dissolved in 2.5 ml IDMF. Subtilisin A was dissolved in 2.5 ml phosphate buffer 0.1 M pH 7 and added to the peptide solution. The reaction mixture was incubated at 40° C. The reaction mixtures were sampled at the indicated reaction times and analysed by HPLC. When needed extra portions of enzyme were added at 2-hour intervals.

[8] = 48 h, extra 5 mg enzyme portions after 6 h and approx. 24 h
[9] = 24 h, extra 5 mg enzyme after 6 h
[10] = 2 h, 5 mg Alcalase CLEA, 50% DMF, pH 7, 40° C.

Cbz-Val-Pro-OtBu
Product vs. Substrate (% area), Alcalase CLEA (Alcalase CLEA [1]): 0/100 | Product vs. Substrate (% area), Subtilisin A (Subtilisin A [2]): 0/100

Cbz-Val-Thr(tBu)-OtBu
Product vs. Substrate (% area), Alcalase CLEA (Alcalase CLEA [1]): 0/100 | Product vs. Substrate (% area), Subtilisin A (Subtilisin A [2]): 0/100

Cbz-VVK(Boc)L-OtBu
Ratio Desired Product vs. Substrate (% area) (Alcalase CLEA [3]; [8]): 100/0

Z-Val-Val-Tyr-Leu-OBu^t ({code Z}-VVYL-OtBu; reading uncertain; also: printed as Z-Val-Val-Tyr-Leu-OBu^t) [model tetrapeptide Z-Val-Val-X-Leu-OBu^t, X=Tyr, tested in mix B]
Ratio Desired Product vs. Substrate (% area) (Alcalase CLEA [3]; [8]): 100/0

Cbz-VVR(Pbf)L-OtBu
Ratio endopeptidase Impurity vs. Desired Product (% area), impurity H-X-Leu-OH (Alcalase CLEA [3]; 24 h): 1/99 (H-X-Leu-OH) | Ratio Desired Product vs. Substrate (% area) (Alcalase CLEA [3]; [8]): 100/0

Z-Val-Val-Trp-Leu-OBu^t ({code Z}-VVWL-OtBu; reading uncertain; also: printed as Z-Val-Val-Trp-Leu-OBu^t) [model tetrapeptide Z-Val-Val-X-Leu-OBu^t, X=Trp, tested in mix D]
Ratio endopeptidase Impurity vs. Desired Product (% area), impurity H-X-Leu-OH (Alcalase CLEA [3]; 24 h): 2/98 (H-X-Leu-OH) | Ratio endopeptidase Impurity vs. Desired Product (% area), impurity H-X-Leu-OH (Alcalase CLEA [3]; 48 h): 6/94 (H-X-Leu-OH)

Cbz-VVVL-OtBu
Ratio Desired Product vs. Substrate (% area) (Alcalase CLEA [3]; 6 h): 100/0 ^1) | Ratio Desired Product vs. Substrate (% area) (Alcalase CLEA [3]; [9]): 100/0 ^1) | Ratio Desired Product vs. Substrate (% area) (Alcalase CLEA [3]; [8]): 100/0

Z-Val-Val-Ser-Leu-OBu^t ({code Z}-VVSL-OtBu; reading uncertain; also: printed as Z-Val-Val-Ser-Leu-OBu^t) [model tetrapeptide Z-Val-Val-X-Leu-OBu^t, X=Ser, tested in mix A]
Ratio Desired Product vs. Substrate (% area) (Alcalase CLEA [3]; 6 h): 100/0 ^1)

Boc-Gly-Phe-Phe-Leu-OBu^t (Boc-GFFL-OtBu; SMILES CC(C)C[C@H](NC(=O)[C@H](Cc1ccccc1)NC(=O)[C@H](Cc1ccccc1)NC(=O)CNC(=O)OC(C)(C)C)C(=O)OC(C)(C)C)
yield of Boc-Gly-Phe-Phe-Leu-OH (substrate conversion by HPLC) (Alcalase CLEA [4]): > 95%

Z-Val-Val-Asn-Leu-OBu^t ({code Z}-VVNL-OtBu; reading uncertain; also: printed as Z-Val-Val-Asn-Leu-OBu^t) [model tetrapeptide Z-Val-Val-X-Leu-OBu^t, X=Asn, tested in mix B]
Ratio Desired Product vs. Substrate (% area) (Alcalase CLEA [3]; [10]): 100/0 | Ratio Desired Product vs. Substrate (% area) (Alcalase CLEA [3]; 6 h): 100/0 | Ratio Desired Product vs. Substrate (% area) (Alcalase CLEA [3]; [9]): 100/0 | Ratio Desired Product vs. Substrate (% area) (Alcalase CLEA [3]; [8]): 100/0

Cbz-Val-[His(Trt)]-OtBu
Product vs. Substrate (% area), Alcalase CLEA (Alcalase CLEA [1]): 0/100 | Product vs. Substrate (% area), Subtilisin A (Subtilisin A [2]): 0/100

Cbz-Val-Ala-OtBu
Product/Substrate (% area) [5]: 100/0 | Product vs. Substrate (% area), Alcalase CLEA (Alcalase CLEA [1]): 100/0 | Product vs. Substrate (% area), Subtilisin A (Subtilisin A [2]): 100/0

Cbz-Val-Ser-OtBu
Product vs. Substrate (% area), Subtilisin A (Subtilisin A [2]): 100/0

Z-Val-Val-Met-Leu-OBu^t ({code Z}-VVML-OtBu; reading uncertain; also: printed as Z-Val-Val-Met-Leu-OBu^t)
Ratio endopeptidase Impurity vs. Desired Product (% area), impurity Z-Val-Val-X-OH (Alcalase CLEA [3]; 24 h): 72/28 (Z-Val-Val-X-OH) | Ratio Desired Product vs. Substrate (% area) (Alcalase CLEA [3]; [9]): 100/0

Z-Val-Val-Ala-Leu-OBu^t ({code Z}-VVAL-OtBu; reading uncertain; also: printed as Z-Val-Val-Ala-Leu-OBu^t) [model tetrapeptide Z-Val-Val-X-Leu-OBu^t, X=Ala, tested in mix A]
Ratio Desired Product vs. Substrate (% area) (Alcalase CLEA [3]; 6 h): 100/0 ^1)

Z-Val-Val-Leu-Leu-OBu^t ({code Z}-VVLL-OtBu; reading uncertain; also: printed as Z-Val-Val-Leu-Leu-OBu^t) [model tetrapeptide Z-Val-Val-X-Leu-OBu^t, X=Leu, tested in mix A]
Ratio Desired Product vs. Substrate (% area) (Alcalase CLEA [3]; 6 h): 100/0 ^1)

Z-Val-Val-Gln-Leu-OBu^t ({code Z}-VVQL-OtBu; reading uncertain; also: printed as Z-Val-Val-Gln-Leu-OBu^t) [model tetrapeptide Z-Val-Val-X-Leu-OBu^t, X=Gln, tested in mix A]
Ratio Desired Product vs. Substrate (% area) (Alcalase CLEA [3]; 6 h): 100/0 ^1)

Cbz-Val-Gln-OtBu
Product vs. Substrate (% area), Alcalase CLEA (Alcalase CLEA [1]): 100/0 | Product vs. Substrate (% area), Subtilisin A (Subtilisin A [2]): 100/0

Cbz-Val-Trp-Leu-OtBu
endopeptidase-related impurities in the final compound (HPLC and LC/MS) (Alcalase CLEA [6]): No endopeptidase-related impurities were identified

Cbz-VVE(OtBu)L-OtBu
Ratio Desired Product vs. Substrate (% area) (Alcalase CLEA [3]; [8]): 100/0

Cbz-Val-Leu-OtBu
Product vs. Substrate (% area), Alcalase CLEA (Alcalase CLEA [1]): 98/2 | Product vs. Substrate (% area), Subtilisin A (Subtilisin A [2]): 100/0 | Product vs. Substrate (% area) (Subtilisin A [7]; 2.5 mg enzyme): 100/0 | Product vs. Substrate (% area) (Subtilisin A [7]; 5 mg enzyme): 100/0

Cbz-VVRL-OtBu
Ratio Desired Product vs. Substrate (% area) (Alcalase CLEA [3]; 6 h): 100/0 ^1)

Cbz-Val-Met-OtBu
Product vs. Substrate (% area), Subtilisin A (Subtilisin A [2]): 100/0

Cbz-Val-Ile-OtBu
Product vs. Substrate (% area), Alcalase CLEA (Alcalase CLEA [1]): traces of product | Product vs. Substrate (% area), Subtilisin A (Subtilisin A [2]): 0/100

Cbz-VVW(Boc)L-OtBu
Ratio Desired Product vs. Substrate (% area) (Alcalase CLEA [3]; [10]): 3/97 | Ratio Desired Product vs. Substrate (% area) (Alcalase CLEA [3]; [8]): 100/0

Z-Val-Val-Phe-Leu-OBu^t ({code Z}-VVFL-OtBu; reading uncertain; also: printed as Z-Val-Val-Phe-Leu-OBu^t) [model tetrapeptide Z-Val-Val-X-Leu-OBu^t, X=Phe, tested in mix B]
Ratio Desired Product vs. Substrate (% area) (Alcalase CLEA [3]; [10]): 23/77 | Ratio Desired Product vs. Substrate (% area) (Alcalase CLEA [3]; 6 h): 81/19 | Ratio Desired Product vs. Substrate (% area) (Alcalase CLEA [3]; [8]): 100/0

Cbz-Val-Asn-OtBu
Product vs. Substrate (% area), Alcalase CLEA (Alcalase CLEA [1]): 100/0

Source: patent US20120231497A1, “SELECTIVE ENZYMATIC […] C-TERMINAL TERT-BUTYL ESTERS OF PEPTIDES” (N.V. Organon, priority 2006, published 2012)
